Source: PMC3666932 (Archives of pharmacal research, 2012)

Key:
T. cruzi epimastigotes = conditions: ref Ramos et al., 2009; cited from earlier work
[1] = system: T. cruzi epimastigotes (Tulahuen CL98 strain); assay: Antitrypanosomal activity assay; format: cell-based, Trypanosoma cruzi; conditions: for Selectivity index (Cytotoxicity/ Activity): ratio of IC50 for fibroblast cells/ IC50 for parasites; for IC50: Trypanosoma cruzi, TULAHUEN, 48 h, read-out: Antitrypanocidal activity IC50
Cytotoxicity assay = format: cell-based; conditions: mouse, Balb/C 3T3 mouse fibroblasts (clone A31)
[2] = Antitrypanosomal activity assay; format: cell-based, Trypanosoma cruzi; conditions: mouse (fibroblasts) / Trypanosoma cruzi (parasites)

Which LD50 (T. cruzi epimastigotes) does the source give for O=C1C(c2ccccc2)=C(c2ccccc2)C(=O)c2ccccc21 [DPNQ, 2,3-diphenyl-1,4-naphthoquin-one] here?
Its LD50 is 2.5 µM.

For O=C1C(Cl)=C(N2C(=O)CCC2=O)C(=O)c2ccccc21 [IMDNQ1], which “Selectivity index (Cytotoxicity/ Activity)” value (from here on “Selectivity index”) [1] is on record?
Its value is 60.25 ± 2.79.

For O=C1C(Cl)=C(N2C(=O)c3ccccc3C2=O)C(=O)c2ccccc21 [IMDNQ2], which “Selectivity index” value [1] is on record?
The value was 53.97 ± 5.95.

With CCCC(=O)N(C(=O)CCC)C1=C(Cl)C(=O)c2ccccc2C1=O [IMDNQ3] as the molecule, how does the “Selectivity index” value [1] read?
Its value is 31.83 ± 3.17.

For O=C1C(Cl)=C(N2C(=O)COCC2=O)C(=O)c2ccccc21 [IMDNQ4], which “Selectivity index” value [1] is on record?
Its value is 7.43 ± 0.97.

Which IC50 [1] does the source give for O=C1C(Br)=C(N(C(=O)c2ccc(F)cc2)C(=O)c2ccc(F)cc2)C(=O)c2ccccc21 [IMDNQ5, N-(3-Bromo-1,4-dioxo-1,4-dihydronaphthalen-2-yl)-4-fluoro-N-(4-fluorobenzoyl)-benzamide] here?
The IC50 was 2.27 ± 0.15 µM.

And the IC50 at 48 h (Cytotoxicity assay)?
Its IC50 at 48 h is 12.8 ± 0.73 µM.

Which IC50 at 48 h (Cytotoxicity assay) does the source give for O=C1C(Br)=C(N(C(=O)c2ccccc2Cl)C(=O)c2ccccc2Cl)C(=O)c2ccccc21 [IMDNQ6, N-(3-Bromo-1,4-dioxo-1,4-dihydronaphthalen-2-yl)-2-chloro-N-(2-chlorobenzoyl)-benzamide] here?
Its IC50 at 48 h is 14.2 ± 1.42 µM.

With O=C1C(Cl)=C(N(C(=O)c2ccccc2Cl)C(=O)c2ccccc2Cl)C(=O)c2ccccc21 [IMDNQ8, 2-Chloro-N-(2-chlorobenzoyl)-N-(3-chloro-1,4-dioxo-1,4-dihydronaphthalen-2-yl)-benzamide] as the molecule, how does the IC50 [1] read?
The IC50 was 2.67 ± 0.33 µM.

What about the IC50 at 48 h (Cytotoxicity assay) of the same molecule?
The IC50 at 48 h was 26.5 ± 1.61 µM.

What does the source list for O=C1C(Cl)=C(N(C(=O)c2ccc(F)cc2)C(=O)c2ccc(F)cc2)C(=O)c2ccccc21 [IMDNQ9, N-(3-Chloro-1,4-dioxo-1,4-dihydronaphthalen-2-yl)-4-fluoro-N-(4-fluorobenzoyl)-benzamide]?
IC50 [1]: 4.07 ± 0.23 µM; IC50 at 48 h (Cytotoxicity assay): 21.8 ± 1.88 µM

For O=C1C(Cl)=C(N(C(=O)c2cccc(Cl)c2)C(=O)c2cccc(Cl)c2)C(=O)c2ccccc21 [IMDNQ10, 3-Chloro-N-(3-chlorobenzoyl)-N-(3-chloro-1,4-dioxo-1,4-dihydronaphthalen-2-yl)-benzamide], which selectivity ratio at 48 h [2] is on record?
The selectivity ratio at 48 h was 275 ± 13.7.

And the IC50 [1]?
The IC50 was 2.23 ± 0.15 µM.

Which “Selectivity index” value [1] does the source give for O=C1C(Cl)=C(N(C(=O)CCl)C(=O)CCl)C(=O)c2ccccc21 [IMDNQ11] here?
Its value is 3.20 ± 0.44.

Which IC50 [1] does the source give for CC1CS(=O)(=O)CCN1/N=C/c1ccc([N+](=O)[O-])o1 (stereo not shown) [Nifurtimox, reference compound] here?
Its IC50 is 10.7 ± 1.01 µM.
